Measurements published in patent publication US8603493B2, “Carbosilane dendrimers, preparation method thereof and use of same” (Dendrico, S.L., priority 2005, dated 2013).
“Also recorded” adds a separate entry of the source.

Columns and labels:
[1] = Dendrimer-drug binding test (polyacrylamide gel delay), heparin; conditions: dendrimer 100 μM, heparin 10, 1, 0.5, 0.1 U, 37° C., 1 hour
Method: (§1) The drugs chosen to perform the tests, all with at least one negative charge at physiological pH, were: • Methotrexate (sodium salt): • 1 charge (−) • Supplying laboratory: Almirall • Presentation: 25 mg/ml solution • Excipients: NaCl, NaOH, HCl, double-distilled H2O • Heparin (sodium salt) • Several charges (−) • Supplying laboratory: Rovi • Presentation: 10 mg/ml solution (1000 U) • Excipients: methyl p-oxybenzoate, propyl p-oxybenzoate, NaCl, double-distilled H2O • Insulin (recombinant human insulin) • 4 charges (−) • Supplying laboratory: Novo Nordisk • Product trade name: Actrapid • Presentation: 3.5 mg/ml solution (100 U) • Excipients: ZnCl2, HCl, NaOH, double-distilled H2O
(§2) The determination of the bond and complex formation between the dendrimer and the drug was performed by evaluating the delay in the polyacrylamide gel of the dendrimer bound to drug with respect to the free dendrimer: • Complex formation: It is performed in a final volume of the mixture of 30 μl, which is the maximum volume to load in the gel. To do this, one starts from the necessary quantity of dendrimer that provides a perfectly identifiable band by staining with silver nitrate in the gel once the electrophoresis has been carried out: 20 μl of a 100 μM solution, which corresponds to […] molecules. The drug is added in the 10 μl at different concentrations to produce the chosen (+) and (−) charge ratios, also determining the quantity of drug molecules present in the mixture. An incubation of said mixture was performed at 37° C. during 1 hour to give time for a more thermodynamically stable complex to form, although more time may be needed for its formation. Each complex is performed in duplicate. • Electrophoresis and gel staining: The gels used were 7.5% polyacrylamide/bisacrylamide, prepared with 1.5M Tris pH 8.8. Each electrophoresis was carried out at 90 volts during 4 hours, after which the gel was stained with silver nitrate and photographed. […]

U87-MG cells [2] = experiment: Proliferation of U-87-MG cells incubated with dendrimers (MTS); format: cell-based; conditions: 1 μM, 5 μM and 10 μM, 3 days
Method: (§3) The tests were performed with the dendrimers NN (2G-[Si(O(CH2)2N(Me)(CH2)2NMe3^+I^−)]8 (26)) and NN16 (2G-[Si(O(CH2)2N^+(Me)2(CH2)2NMe3^+2I^−)]8 (36)). The transfection tests were performed with the anti-rev RF ODN (SEQ ID NO:2). The culture medium was DMEM+10% bovine foetal serum.
(§4) Different experiments were performed, one with SK-N-MC cells and another with U-87-MG cells, which studied the effect of the dendrimers on the proliferation of said lines. For this, 7000 cells/well were plated of the corresponding in a 96-well dish. […] As positive proliferation control, cells were incubated with 20 μg/ml of LPS and, as positive death induction control, cells were used incubated with 7% DMSO. As negative control untreated cells were used.

SK-N-MC cells [3] = experiment: Transfection of SK-N-MC cells mediated by dendrimers (flow cytometry); format: cell-based; conditions: dendriplex with anti-rev oligonucleotide 250 nM, − charge/+ charge ratio 1:4, 24 hours
Method: (§5) 100000 cells/well were plated of the corresponding cell line in a 24-well plate with 500 μl of medium.
(§6) Dendriplexes were formed with dendrimers NN and NN16 and the fluorescent anti-rev antisense oligonucleotide in a total volume of 75 μl of medium without serum, wherein the anti-rev oligonucleotide was mixed at a concentration 250 nM and the corresponding dendrimer in different proportions, so that different − charge/+ charge ratios were obtained: 1:1, 1:2, 1:4 and 1:8. The mixture was incubated during half an hour at ambient temperature and then it was added to the corresponding well to incubate the cells with dendriplexes.
(§7) After 24 hours of incubation, the cells were removed from the well, they were washed twice with PBS, they were incubated for 1 minute with acid glycine to remove the possible moieties of dendriplexes which may have remained adhered on the cell membrane, and a final wash was performed with PBS. Finally, the cells were resuspended in 500 μl of PBS and the quantity of fluorescent oligonucleotide inside the cell was quantified by flow cytometry.

[4] = target: T1, Insulin (recombinant human insulin) (Homo sapiens, UniProt P01308); experiment: Dendrimer-drug binding test (polyacrylamide gel delay), insulin; conditions: dendrimer 100 μM, insulin 1, 0.5, 0.1, 0.05 U, 37° C., 1 hour
T1 construct: Despite having its molecular weight (5825 g/mol) and establishing an average of 4 (−) charges; purchased Novo Nordisk Actrapid (trade name; no catalogue number given)
T1 sequence (P01308 25-54 limits assumed): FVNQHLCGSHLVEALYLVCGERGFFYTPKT
T1 sequence (P01308 90-110 limits assumed): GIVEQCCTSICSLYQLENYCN
Method: as §1, §2

[5] = Dendrimer-drug binding test (polyacrylamide gel delay), methotrexate; conditions: dendrimer 100 μM, charge ratios 1+/1− to 8+/1−, 37° C., 1 hour
Method: as §1, §2

U87-MG cells [6] = experiment: Toxicity in U-87-MG cells: LDH in the supernatant; conditions: 24 hours
Description: The concentrations and volumes of each one of these compounds were the same used in the test performed with MTT. The commercial kit Cytotoxicity Detection KitPLUS (LDH), from Roche Applied Science was used to determine lactate dehydrogenase, following the manufacturer's instructions.

U87-MG cells [7] = experiment: Transfection of U87-MG cells mediated by dendrimers (flow cytometry); format: cell-based; conditions: dendriplex with anti-rev oligonucleotide 250 nM, − charge/+ charge ratio 1:8, 24 hours
Method: as §5, §6, §7

U87-MG cells [8] = experiment: Toxicity in U-87-MG cells: tests with MTT
Method: A test with U-87-MG cells was performed, wherein the effect of the dendrimers on the viability of said lines was studied at different times. To do this, 15000 (24 hour incubations), 7000 (3 day incubations) or 1500 (7 day incubations) cells per well were plated in 96-well plates. The cells were incubated with different concentrations (1 μM, 5 μM and 10 μM) either NN dendrimer or NN16 dendrimer, during 24 hours, 3 days and 7 days. […] Two different positive controls were also used: cells treated with 7% DMSO and cells treated with 1% Triton X-100.
In the case of Superfect, three doses were tested, the optimum dose recommended by the manufacturer (2.5 μl), a lower dose (1.25 μl) and another higher dose (5 μl). With regard to Polyfect, specifically designed for adherent cells, the three doses tested were: optimum dose (0.6 μl), lower dose (0.3 μl) and higher dose (1.2 μl).
After each corresponding incubation time, a test was performed with MTT analogous to that described in Example 38. At the absorbance value obtained in the untreated cells (C−) it was given the value of 1 and the moiety of the absorbencies produced was used to refer to it.

SK-N-MC cells [9] = experiment: Proliferation of SK-N-MC cells incubated with dendrimers (MTS); format: cell-based; conditions: 3 days
Method: as §3, §4

SK-N-MC cells [10] = experiment: Toxicity in SK-N-MC cells: test with MTT; format: cell-based; conditions: 24 hours, 1, 5, 10 μM

C[N+](C)(C)CC[N+](C)(C)CCO[Si](C)(C)CCC[Si](C)(CCC[Si](CCC[Si](C)(CCC[Si](C)(C)OCC[N+](C)(C)CC[N+](C)(C)C)CCC[Si](C)(C)OCC[N+](C)(C)CC[N+](C)(C)C)(CCC[Si](C)(CCC[Si](C)(C)OCC[N+](C)(C)CC[N+](C)(C)C)CCC[Si](C)(C)OCC[N+](C)(C)CC[N+](C)(C)C)CCC[Si](C)(CCC[Si](C)(C)OCC[N+](C)(C)CC[N+](C)(C)C)CCC[Si](C)(C)OCC[N+](C)(C)CC[N+](C)(C)C)CCC[Si](C)(C)OCC[N+](C)(C)CC[N+](C)(C)C [NN16, 2G-[Si(O(CH2)2N^+(Me)2(CH2)2NMe3^+2I^−)]8]
dendrimer-heparin complex formation (delay in gel) [1]: complex is formed | effect on cell proliferation (MTS) (U87-MG cells [2]): neither induce proliferation nor cell death | percentage of cells transfected (maximum transfection) (SK-N-MC cells [3]): 82.3% | dendrimer-insulin complex formation (delay in gel) [4]: complex is formed | dendrimer-methotrexate complex formation (delay in gel) [5]: complex is formed | cytotoxicity (LDH), comparison (U87-MG cells [6]): greater cytotoxicity as their concentration increases; also recorded: less toxic than NN | percentage of cells transfected (U87-MG cells [7]): 97.8% | viability (MTT), untreated cells (C−) = 1 (U87-MG cells [8]; 3 days, any one of the three concentrations (1, 5, 10 μM)): ~0.8 | viability (MTT), untreated cells (C−) = 1 (U87-MG cells [8]; 7 days, 10 μM): 0.7 | effect on cell proliferation (MTS) (SK-N-MC cells [9]; 1 μM and 5 μM): do not produce toxicity nor cell proliferation | effect on cell proliferation (MTS) (SK-N-MC cells [9]; 10 μM): toxic | toxicity (MTT), comparison (SK-N-MC cells [10]): least toxicity
